Each structure is given as a SMILES string.

The values that follow come from patent publication US10842806B2, “Methods for treating ocular inflammatory disorders” (Massachusetts Eye and Ear Infirmary, priority 2011, dated 2020).

Series [1] concerns TNF-α. Description: TNF-α ELISA in aqueous humor, retina and serum of EIU rats. It counts as in vivo, Lewis rats. The settings on record: LPS + AICAR. As for the experimental part:
Male Lewis rats ranging from 6-8 weeks old (Charles River, Wilmington, Mass.) were used for these studies. To study the effects of AICAR pretreatment, AICAR and PBS (for placebo treatment) were delivered via intraperitoneal injection of AICAR (50 mg/kg or 100 mg/kg body weight; Sigma) diluted in 150 μl PBS or equal volume of PBS at 6 hours before and at the same time as LPS injection. Four experimental groups of rats were compared: (1) Normal: no treatment (2) AICAR: normal rats treated with AICAR 6 hours before examination; (3) LPS: EIU rats treated with PBS; (4) LPS+AICAR: EIU rats treated with AICAR. Two additional groups of rats were used to study the effects of AICAR (50 mg/kg) given either at the same time as LPS injection or at 6 hours after LPS injection. Under deep anesthesia, experimental rats were sacrificed and the retinas were carefully removed 24 hours after LPS injection, placed into 200 μl of lysis buffer and then sonicated. The lysate was centrifuged at 13,000 rpm for 10 minutes at 4° C. and supernatant was isolated. […] Cytokine and chemokine levels in the serum, aqueous humor, and retina were assessed using the rat CCL2/MCP-1 kit (Invitrogen, Camarillo, Calif.), the rat TNF-α kit (R&D system, Minneapolis, Minn.) and the rat ICAM-1 kit (R&D systems) by ELISA.
In general terms: In an ELISA, binding on a coated surface is turned into a signal by an enzyme label.

Series [2] deals with endotoxin-induced uveitis (EIU). Description: Cell count and total protein concentration in aqueous humor of EIU rats. It counts as in vivo, Lewis rats. As for the experimental part:
Male Lewis rats ranging from 6-8 weeks old (Charles River, Wilmington, Mass.) were used for these studies. To study the effects of AICAR pretreatment, AICAR and PBS (for placebo treatment) were delivered via intraperitoneal injection of AICAR (50 mg/kg or 100 mg/kg body weight; Sigma) diluted in 150 μl PBS or equal volume of PBS at 6 hours before and at the same time as LPS injection. Four experimental groups of rats were compared: (1) Normal: no treatment (2) AICAR: normal rats treated with AICAR 6 hours before examination; (3) LPS: EIU rats treated with PBS; (4) LPS+AICAR: EIU rats treated with AICAR. Two additional groups of rats were used to study the effects of AICAR (50 mg/kg) given either at the same time as LPS injection or at 6 hours after LPS injection. Aqueous humor was collected by anterior chamber puncture with a 30-gauge needle 24 hours after LPS injection. For cell counting, 1 μl of aqueous humor was diluted with an equal amount of Trypan-blue solution, and the cells were counted with a hematocytometer under a light microscope. A separate sample of aqueous humor was centrifuged at 2500 rpm for 5 minutes at 4° C. and the total protein concentration was measured by Lowry methods using a Bio-Rad protein assay kit (Hercules, Calif.). Aqueous samples were stored on ice until used; cell counts and total protein concentrations were measured on the day of sample collection.

Series [3] has as its system adherent leukocytes in retinal vessels. Nature of the series: Leukocyte adhesion to retinal vessels (Concanavalin A lectin staining). It counts as in vivo, Lewis rats. As for the experimental part:
Male Lewis rats ranging from 6-8 weeks old (Charles River, Wilmington, Mass.) were used for these studies. To study the effects of AICAR pretreatment, AICAR and PBS (for placebo treatment) were delivered via intraperitoneal injection of AICAR (50 mg/kg or 100 mg/kg body weight; Sigma) diluted in 150 μl PBS or equal volume of PBS at 6 hours before and at the same time as LPS injection. Four experimental groups of rats were compared: (1) Normal: no treatment (2) AICAR: normal rats treated with AICAR 6 hours before examination; (3) LPS: EIU rats treated with PBS; (4) LPS+AICAR: EIU rats treated with AICAR. Two additional groups of rats were used to study the effects of AICAR (50 mg/kg) given either at the same time as LPS injection or at 6 hours after LPS injection. Inflammation in the posterior segment of the eye is seen in EIU with the adherence of recruited leukocytes to the retinal vascular endothelium (Koizumi et al. (2003) INVEST. OPHTHALMOL. VIS. SCI. 44:2184-2191). Leukocyte adhesion to the retinal vessels was evaluated at 24 hours after EIU induction by using the Concanavalin A (Con A) lectin staining technique (Smith et al. (1994) INVEST. OPHTHALMOL. VIS. SCI. 35:101-111). […] The flatmounts were imaged using an epifluorescence microscope (DM RXA; Leica) and the total number of Con A-stained adherent leukocytes per retina was counted.

The subject of series [4] is IRBP-reactive T cells (LN cells). Nature of the series: LN cells from untreated EAU mice cultured with IRBP peptide in the presence of AICAR. It counts as cell-based. As for the experimental part: To measure cell proliferation, LN cells were resuspended at 5×10^5 cells per 200 μl of medium in 96-well flat-bottom plates. Cells were incubated for 72 hours and proliferation during the last 12 hours was measured by using a bromodeoxyuridine (BrdU) cell proliferation assay kit (Millipore, Billerica, Mass.). Supernatant in the culture medium was collected at 48 hours and cytokine production in the supernatant was measured by ELISA using the Quantikine mouse IFN-γ, IL-4, IL-10 and IL-17 kits (R&D system, Minneapolis, Minn.).
To assess the effect of AICAR on already developed IRBP-specific T cells, LN cells from untreated EAU mice were cultured with IRBP peptide in the presence of AICAR (FIGS. 10A-10E). Specifically, LN cells were resuspended at 5×10^5 cells per 200 μl of medium in 96-well flat-bottom plates. Triplicate samples of cells were stimulated with or without IRBP at the indicated concentrations. AICAR was added at the indicated concentrations. Cell proliferation and cytokine production were measured as previously described in Example 10.

The subject of series [5] is CCL2/MCP-1. Nature of the series: CCL2/MCP-1 ELISA in aqueous humor, retina and serum of EIU rats. It counts as in vivo, Lewis rats. The settings on record: LPS + AICAR. As for the experimental part:
Male Lewis rats ranging from 6-8 weeks old (Charles River, Wilmington, Mass.) were used for these studies. To study the effects of AICAR pretreatment, AICAR and PBS (for placebo treatment) were delivered via intraperitoneal injection of AICAR (50 mg/kg or 100 mg/kg body weight; Sigma) diluted in 150 μl PBS or equal volume of PBS at 6 hours before and at the same time as LPS injection. Four experimental groups of rats were compared: (1) Normal: no treatment (2) AICAR: normal rats treated with AICAR 6 hours before examination; (3) LPS: EIU rats treated with PBS; (4) LPS+AICAR: EIU rats treated with AICAR. Two additional groups of rats were used to study the effects of AICAR (50 mg/kg) given either at the same time as LPS injection or at 6 hours after LPS injection. Under deep anesthesia, experimental rats were sacrificed and the retinas were carefully removed 24 hours after LPS injection, placed into 200 μl of lysis buffer and then sonicated. The lysate was centrifuged at 13,000 rpm for 10 minutes at 4° C. and supernatant was isolated. Three hours after LPS injection, blood samples were collected from the heart and subsequently centrifuged at 3000 rpm for 30 minutes at 4° C., and serum samples were separated. Cytokine and chemokine levels in the serum, aqueous humor, and retina were assessed using the rat CCL2/MCP-1 kit (Invitrogen, Camarillo, Calif.), the rat TNF-α kit (R&D system, Minneapolis, Minn.) and the rat ICAM-1 kit (R&D systems) by ELISA.

As to `NC(=O)c1ncn([C@@H]2O[C@H](CO)[C@@H](O)[C@H]2O)c1N` [AICAR, 5-aminoimidazole-4-carboxamide-1-β-d-ribofuranoside], the TNF-α in serum in series [1] (3 hours after LPS, n=11, LPS 147.2 ± 337.1, p 0.475) came out at 57.8 ± 143.1 pg/mL. Besides, the “TNF-α in aqueous humor” value in series [1] (24 h after LPS, n=12, LPS 277.8 ± 123.9) was 92.5 ± 140.5 pg/mL. Besides, the “Total protein concentration in aqueous humor” value in series [2] (AICAR 50 mg/kg pretreatment, 24 h after LPS, LPS only 18.3) amounted to 7.9 mg/mL. The “Number of infiltrating cells in aqueous humor” value in series [2] (AICAR 50 mg/kg pretreatment, 24 h after LPS, n=11, LPS only 22.0×10^5) is given as 1.4×10^5 cells/ml. Besides, in series [2] (normal rats, AICAR only, n=6), the “Cell infiltration and protein levels in aqueous humor of AICAR-only-treated rats” value is “did not show any significant infiltration of cells nor a significant increase in protein levels”. Besides, in series [3] (AICAR 50 mg/kg pretreatment, 24 h after LPS, n=11, EIU rats 1163±244), the “Number of Con A-stained adherent leukocytes per retina” value amounted to 576±249 cells. For the same compound, the “Adherent leukocytes in AICAR-only-treated rats” value in series [3] (normal rats, AICAR only, n=6) is “few adherent leukocytes”. In addition, in series [4], the “IFN-γ production in vitro” value is listed as “suppressed”, the “IL-4 production in vitro” value is “not significantly induced”, the “IL-10 production in vitro” value is recorded as “suppressed” and the “IL-17 production in vitro” value was “suppressed”. The “T cell proliferation in vitro” value in series [4] is “suppressed”. In addition, the MCP-1 in serum in series [5] (3 hours after LPS, n=11, LPS 6.8 ± 0.5) came out at 0.4 ± 0.2 ng/mL. In addition, in series [5] (24 h after LPS, n=12, LPS 4.4 ± 3.9), the “MCP-1 in aqueous humor” value was determined as 0.8 ± 1.0 ng/mL. For the same compound, in series [5] (24 h after LPS, n=14, LPS 18.7 ± 11.3), the MCP-1 in retina turned out to be 8.8 ± 2.9 pg/total retinal protein.
